Columns and labels:
[1] = molecular target: rat brain type IIA Na+ channel (Nav1.2) (Rattus norvegicus, UniProt P04775); test: Whole-cell patch clamp recordings of Na+ currents in CNaIIA-1 cells; assay type: cell-based; details: fit of shift of inactivation curve
[2] = molecular target: T1, cannabinoid receptor 1 (CB1) (Homo sapiens, UniProt P21554); test: Displacement of [3H]CP55940 from CB1 receptors expressed in HEK293 cells; assay type: binding; details: [3H]CP55940 displacement, Cheng-Prusoff
T1 construct: expressed in transfected cells; host or cells: HEK293 cells
T1 sequence (P21554 whole entry, species assumed): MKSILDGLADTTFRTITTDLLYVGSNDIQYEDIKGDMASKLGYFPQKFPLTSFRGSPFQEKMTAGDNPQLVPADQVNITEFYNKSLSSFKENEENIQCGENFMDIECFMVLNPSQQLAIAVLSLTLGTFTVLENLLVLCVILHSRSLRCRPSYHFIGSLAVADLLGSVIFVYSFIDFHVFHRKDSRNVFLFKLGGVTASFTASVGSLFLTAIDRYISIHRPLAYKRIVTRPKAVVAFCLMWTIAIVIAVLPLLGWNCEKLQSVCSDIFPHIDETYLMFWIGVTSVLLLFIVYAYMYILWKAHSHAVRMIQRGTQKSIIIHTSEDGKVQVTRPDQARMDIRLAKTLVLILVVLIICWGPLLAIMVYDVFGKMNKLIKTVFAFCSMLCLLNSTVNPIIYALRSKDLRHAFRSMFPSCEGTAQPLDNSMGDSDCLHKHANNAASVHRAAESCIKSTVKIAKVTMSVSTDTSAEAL
Excerpt: The cannabinoid receptor 1 (CB1) is a G-protein coupled receptor (GPCR), which can modulate the enzymatic activity of adenylyl cyclase (AC), inhibit calcium influx into neurons and increase neuronal potassium permeability. The CB1 receptors have been reported to be intimately involved in the progression and control of chronic pain. The CB1 receptors reportedly are involved in both the amelioration of anxiety and depression and may also be important in cognitive function and eating behavior. The interaction of a chemical entity with a CB1 receptor can be measured by the binding of selective radioligands to the native receptor or a CB1 receptor expressed in model cell systems. To ascertain the extent to which a non-radioactive ligand binds to a CB1 receptor the displacement of the radioactive CB1 selective ligand with DCUK-OEt was performed. The methods of assay and calculations for binding constants can be accessed, for example, on the PDSP website (pdsp(dot)med(dot)unc(dot)edu/indexR(dot)html). For binding of DCUK-OEt to the CB1 receptor, the displacement of the CB1 selective radioligand [^3H] CP55940 from CB1 receptors expressed in HEK293 cells was monitored. The log IC50 was determined from the displacement data, and the Ki values for DCUKA and DCUK-OEt were calculated using the Cheng-Prusoff equation.

[3] = Plasma and brain levels after oral administration of DCUK-OEt; assay type: in vivo; details: rat, 200 mg/kg DCUK-OEt emulsion by oral gavage
Experimental: Oral administration has been the major route of drug administration for the treatment of many diseases. […] Groups of rats were administered 200 mg/kg DCUK-OEt prepared as an emulsion in gelatin:canola oil (50:50) by oral gavage and sacrificed at 0.25, 0.5, 1, 1.5, 2, 4, 6, and 8 hours following administration, in order to collect the blood and brains for analysis. Plasma and brain levels of DCUKA and DCUK-OEt were analyzed by liquid chromatographic separation and mass spectrometric detection. Orally administered DCUK-OEt was converted to DCUKA by plasma and brain carboxylesterases. Peak levels of plasma DCUK-OEt were reached by about 1 hour post-administration, and fell to low levels by about 2 hours. DCUKA plasma levels peaked at about 2 hours and then fell off slowly over the next 4 hours. Brain DCUK-OEt levels peak at about 1 hour post-administration.
Oral administration. Following overnight food deprivation, groups of 3 rats were administered 200 mg/kg DCUK-OEt by oral gavage (40 mg/mL DCUK-OEt at 5 mL/kg body weight). Groups of rats were anesthetized and sacrificed by decapitation at 0.25, 0.5, 1, 1.5, 2, 4, 6, and 8 hours post-administration. Trunk blood was collected into tubes containing K2EDTA anticoagulant and brains were removed, washed thoroughly with 0.9% NaCl, and frozen on dry ice. Blood samples were centrifuged at 4000 rpm for 10 minutes. Plasma supernatant was removed and frozen at −80° C. until the time of the assay.
Liquid chromatographic-mass spectrometric determination of plasma and brain DCUKA and DCUK-OEt levels. Rat plasma sample preparation involved a simple protein precipitation procedure (100 μL plasma+250 μL acetonitrile containing 25 ng/mL of the internal standard, DCUK-OMe). After vortexing (5 minutes) and centrifugation (5000 g, 5 minutes, +4° C.), 200 μL of the supernatant was injected into the HPLC system and loaded onto the extraction column. Frozen brain tissue samples (about 0.5 g) were homogenized over liquid nitrogen using a mortar and pestle. The homogenized powder was transferred into the tubes containing 1.5 mL ice-cold 100% acetonitrile and 25 ng/mL DCUK-OMe (used as an internal standard). Following procedures were all performed on ice or at 4° C. The samples were further homogenized using an electric homogenizer for 30 seconds at 4° C. Subsequently, the tubes were placed into the ultrasonic bath for 30 minutes (on ice), and centrifuged afterwards at 1300 g for 10 minutes at 4° C. The supernatant was transferred into the HPLC tube. The pellet was re-extracted with 500 μL MeOH (containing 25 ng/mL DCUK-OMe), sonicated for 10 minutes, and centrifuged (10 minutes at 1300 g, 4° C.). The MeOH phase was combined with the acetonitrile solution from the first extraction step and 500 μL of the solution was directly injected into the HPLC system.
The two HPLC systems consisted of the following components (all series 1100, Agilent Technologies, Palo Alto, USA): HPLC I: G1312A binary pump, G1379A degasser; HPLC II: G1312A binary pump, and a G1316A column thermostat. A Sciex API 4000 triple-stage quadrupole mass spectrometer was used as detector (Applied Biosystems, Foster City, USA). The HPLC systems were connected via a 6-port column switching valve mounted on a step motor. The HPLC's switching valve and the mass spectrometer were controlled by the Analyst software (version 1.3.1., Applied Biosystems). […]

[4] = Brain levels of DCUKA after intraperitoneal administration; assay type: in vivo; details: over at least 2 hours
Experimental: While the acid forms of the diarylureido-dihalokynurenic acid compounds are detectable in the brain after intravenous or intraperitoneal injection, “prodrug” versions (e.g., esters) were prepared to enhance transport across the blood-brain barrier. FIG. 6 illustrates the brain levels of DCUKA after administration of DCUKA itself, the DCUK-O-methyl ester and the DCUK-O-ethyl ester. […] Accordingly, ethyl esters of the diarylureido-dihalokynurenate compounds are particularly preferred (e.g., DCUK-OEt).

Chain of rat brain type IIA Na+ channel (Nav1.2) (P04775 whole entry): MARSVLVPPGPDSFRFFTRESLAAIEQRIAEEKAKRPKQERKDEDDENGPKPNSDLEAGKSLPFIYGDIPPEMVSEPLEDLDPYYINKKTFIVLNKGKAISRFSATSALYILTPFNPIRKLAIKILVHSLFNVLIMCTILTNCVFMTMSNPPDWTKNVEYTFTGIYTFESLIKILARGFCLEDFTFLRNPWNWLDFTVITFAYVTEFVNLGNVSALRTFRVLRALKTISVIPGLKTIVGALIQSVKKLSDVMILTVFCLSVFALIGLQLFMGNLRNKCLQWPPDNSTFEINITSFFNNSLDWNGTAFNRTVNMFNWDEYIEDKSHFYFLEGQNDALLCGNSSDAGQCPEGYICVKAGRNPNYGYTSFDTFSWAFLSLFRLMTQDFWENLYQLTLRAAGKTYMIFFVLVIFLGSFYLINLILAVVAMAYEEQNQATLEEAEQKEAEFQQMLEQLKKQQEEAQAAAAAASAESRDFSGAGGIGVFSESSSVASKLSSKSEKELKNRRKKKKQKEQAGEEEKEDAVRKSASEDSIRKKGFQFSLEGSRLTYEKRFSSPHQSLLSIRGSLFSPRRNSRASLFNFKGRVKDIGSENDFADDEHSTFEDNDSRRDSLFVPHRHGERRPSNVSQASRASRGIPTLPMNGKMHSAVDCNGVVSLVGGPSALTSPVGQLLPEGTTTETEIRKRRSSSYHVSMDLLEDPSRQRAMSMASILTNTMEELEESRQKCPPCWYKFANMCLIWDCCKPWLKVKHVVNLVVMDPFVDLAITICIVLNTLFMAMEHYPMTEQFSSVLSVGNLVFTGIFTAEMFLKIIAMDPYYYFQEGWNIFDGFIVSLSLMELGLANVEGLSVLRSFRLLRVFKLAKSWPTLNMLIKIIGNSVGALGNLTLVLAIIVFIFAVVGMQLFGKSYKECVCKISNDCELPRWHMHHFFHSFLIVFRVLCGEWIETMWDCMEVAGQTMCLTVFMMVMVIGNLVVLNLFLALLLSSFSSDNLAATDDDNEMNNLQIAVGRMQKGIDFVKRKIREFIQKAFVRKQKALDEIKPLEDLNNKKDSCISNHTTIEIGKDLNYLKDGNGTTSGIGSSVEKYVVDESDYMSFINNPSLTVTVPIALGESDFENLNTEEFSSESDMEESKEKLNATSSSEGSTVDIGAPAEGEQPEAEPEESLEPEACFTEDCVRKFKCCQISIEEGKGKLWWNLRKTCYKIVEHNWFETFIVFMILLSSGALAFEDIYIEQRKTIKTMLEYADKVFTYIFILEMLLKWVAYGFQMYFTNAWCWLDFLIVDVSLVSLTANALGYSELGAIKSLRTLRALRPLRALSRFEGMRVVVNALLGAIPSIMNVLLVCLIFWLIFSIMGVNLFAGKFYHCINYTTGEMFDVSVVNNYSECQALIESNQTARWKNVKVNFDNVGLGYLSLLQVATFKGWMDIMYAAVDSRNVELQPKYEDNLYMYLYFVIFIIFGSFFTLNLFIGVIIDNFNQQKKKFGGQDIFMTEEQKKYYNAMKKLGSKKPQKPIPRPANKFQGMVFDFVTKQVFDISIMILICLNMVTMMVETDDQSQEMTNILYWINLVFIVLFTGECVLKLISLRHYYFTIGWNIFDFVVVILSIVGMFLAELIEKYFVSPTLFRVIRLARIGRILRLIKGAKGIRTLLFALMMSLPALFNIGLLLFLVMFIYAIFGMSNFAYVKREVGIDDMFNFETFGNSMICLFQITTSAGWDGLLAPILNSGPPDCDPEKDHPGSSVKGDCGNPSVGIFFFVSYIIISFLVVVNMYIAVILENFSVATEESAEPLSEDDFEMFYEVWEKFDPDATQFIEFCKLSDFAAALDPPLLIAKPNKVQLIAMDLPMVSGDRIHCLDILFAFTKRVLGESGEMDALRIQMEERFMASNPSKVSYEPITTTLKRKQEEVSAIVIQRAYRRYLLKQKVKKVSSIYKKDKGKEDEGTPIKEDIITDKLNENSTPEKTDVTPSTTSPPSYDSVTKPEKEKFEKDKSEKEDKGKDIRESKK

| Structure (SMILES) | Ki ([1]; read-out: KI, dissociation constant for inactivated states) | Kd ([1]; read-out: KR, dissociation constant for the resting state) | Ki [2] | time of peak plasma level ([3]; analyte = label) | brain level at about 8 hours post-administration ([3]; analyte DCUKA) | levels of DCUKA in the brain generated by the ester [4] | time at which plasma level fell to low levels [3] | time of peak brain level ([3]; analyte = label) |
| --- | --- | --- | --- | --- | --- | --- | --- | --- |
| O=C(O)c1cc(NC(=O)N(c2ccccc2)c2ccccc2)c2c(Cl)cc(Cl)cc2n1 [DCUKA, N,N-diphenyl-4-ureido-5,7-dichloro-2-carboxyquinoline] | 9.8 µM | 244 µM | > 10 µM | about 2 hour | still elevated |  |  |  |
| CCOC(=O)c1cc(NC(=O)N(c2ccccc2)c2ccccc2)c2c(Cl)cc(Cl)cc2n1 [DCUK-OEt, N,N-diphenyl-4-ureido-5,7-dichloro-2-carboxy quinoline ethyl ester] |  |  | 7.4 µM | about 1 hour |  | significantly improved levels of DCUKA in the brain | about 2 hours | about 1 hour |

Source: patent publication US20110184018A1, “METHOD FOR TREATING PERIPHERAL NEUROPATHIC PAIN” (LOHOCLA RESEARCH CORPORATION, priority 2005, published 2011)
